Results from US11965161B2, “Methods and compositions for sensitization of tumor cells to immune therapy” (Regeneron Pharmaceuticals, Inc., priority 2020, dated 2024).
Entries after “also recorded” stand apart in the source; their conditions may differ. Residues, ends and D or L forms follow the SMILES beside them. *: point of attachment. Cbz = O=C(OCc1ccccc1)*; CH2F = FC*

Columns and labels:
[1] = tested on: ZR-75-1 human breast cancer cells; test: Western blots of ZR-75-1 cells (p62, caspase-8); format: cell-based; conditions: 5 μM inhibitor, 16 hours; for p62 levels: ZR-75-1 cells; for TNFα-induced activation of caspase-8: human breast cancer cells ZR-75-1, 10 ng/ml TNFα
Procedure: (§1) Whole cell lysates were prepared in tris-glycine SDS sample buffer (ThermoFisher) containing 5% 2-mercaptoethanol. Western blotting was performed by conventional techniques using tris-glycine polyacrylamide SDS gels (ThermoFisher) and PVDF membranes (BioRad). Blots were blocked in 5% milk powder and 0.5% Tween-20 in TBS and then incubated overnight with primary antibodies. After addition of secondary antibodies, membranes were incubated with SuperSignal West Pico Plus or Femto substrate (ThermoFisher) and luminescence was captured with a C300 imager (Azure Biosystems). Primary antibodies against TAK1, Rbck1, Re1A p65, Rb1cc1, Atg12, cleaved caspase-8, procaspase-8, RIPK1, RIPK1 phospo-Ser321, RIPK1 phospho-Ser166, Iκ-Bα, A20, p62, phospho-p65, LC3B, TNFR1 (CST), Atg9a (Novus), cIAP1 (Enzo), β2M (ThermoFisher), FADD and ICAM (Abcam) were used. Horseradish peroxidase-conjugated β-Actin antibody and secondary antibodies against mouse IgG, rabbit IgG and goat IgG were from Santa Cruz Biotechnology.

[2] = tested on: multiple mouse and human cancer cell lines; test: TNFα-mediated killing in a panel of cancer cell lines with or without autophagy inhibitor; format: cell-based; conditions: 10 ng/ml TNFα, 5 μM inhibitor, 24 hours, EMT6, LL/2, CT26, Colon26, BT-20, Me-180, MDA-MB-361, ZR-75-1
Procedure: (§2) The effects of TNFα, TRAIL, doxorubicin or paclitaxel on cell viability were assessed following 24 hour incubations at the indicated concentrations. The effects of 5 μM autophinib or SAR-405 on TNFα (10 ng/ml) or TRAIL (10 ng/ml or 50 ng/ml) induced killing were assessed following 24 hour incubations unless otherwise indicated. In all cases, cell viability was measured using CCK8 cell counting kit-8 (CCK-8) reagent, which is reduced by dehydrogenase activities in cells to give a yellow-colored formazan dye (Dojindo). The absorbance was measured using a SpectraMax M3 microplate reader (Molecular Devices).

[3] = tested on: ZR-75-1 human breast cancer cells; test: CD3 bispecific antibody-induced killing of ZR-75-1 cells by human T cells; format: cell-based; conditions: 12 ng/ml bispecific antibody, 5 μM SAR-405, 24 hours
Excerpt: CD8^+ T cells were isolated from spleens and lymph nodes of 6-8 week old male OT-1 mice. These mice contain transgenic inserts for mouse Tcra-V2 and Tcrb-V5 genes. The transgenic T cell receptor was designed to recognize ovalbumin peptide residues 257-264 in the context of H-2Kb MHC class I protein. In some experiments, human CD8+ T cells were isolated from PBMCs. T cells were activated in vitro with CD3/CD28 beads at a 1:2 bead:cell ratio for 2-3 days. T cells were activated in RPMI-1640 medium containing 20 ng/ml mouse IL-2, 10% heat inactivated fetal bovine serum, 20 mM HEPES, 2 mM L-glutamine, 1 mM sodium pyruvate, 0.05 mM 2-mercaptoethanol and 50 U/ml penicillin/streptomycin. For human tumor cell killing experiments using CD3 bispecific antibody, human T cells were isolated from peripheral blood mononuclear cells (PBMCs) (ReachBio) using Dynabeads Untouched Human T Cells Kit (Thermo Fisher Scientific).
Human ZR-75-1 cells were seeded at 100,000 cells per 24 well. After 24 hours, cells were incubated with activated CD8^+ T cells (isolated from human PBMCs) at the indicated E:T ratios for 24 hours in the presence of 12 ng/ml breast tumor antigen×CD3 or control (doesn't bind to ZR-75-1 cells) bispecific antibodies in the absence or presence of 5 μM autophagy inhibitor SAR-405.

[4] = tested on: MC38 cells; test: TNFα-induced killing of MC38 cells, cell viability (CCK-8); format: cell-based, mouse; conditions: for TNFα-mediated killing in Rb1cc1 KO cells: Rb1cc1 KO MC38 cells, 25 μM z-VAD-FMK or 50 μM Nec-1
Procedure: as §2

[5] = tested on: HCT-116 and HeLa human cancer cells; test: TNFα- and TRAIL-mediated killing of human cancer cells with or without autophinib, cell viability; format: cell-based; conditions: 5 μM autophinib, 24 hours
Procedure: as §2

[6] = tested on: MC38 cells; test: Western blots of MC38 cell lysates (caspase-8, p62, Iκ-Bα, phospho-S6); format: cell-based, mouse; conditions: 5 μM autophinib
Procedure: as §1

[7] = tested on: HCT-116 and HeLa human cancer cells; test: Western blots of HCT-116 and HeLa cells after TRAIL with or without autophinib; format: cell-based; conditions: human cancer cells (HCT-116, HeLa), 10 or 50 ng/ml TRAIL, 24 hours
Procedure: as §1

[8] = tested on: CT26, B16F10, 4T1, EMT6, MC38 tumor cell lines; test: TNFα-induced caspase-8 activation and apoptosis in a panel of tumor cell lines; format: cell-based, mouse; conditions: 24 hours
Procedure: as §2
Whole cell lysates were prepared in tris-glycine SDS sample buffer (ThermoFisher) containing 5% 2-mercaptoethanol. Western blotting was performed by conventional techniques using tris-glycine polyacrylamide SDS gels (ThermoFisher) and PVDF membranes (BioRad). Blots were blocked in 5% milk powder and 0.5% Tween-20 in TBS and then incubated overnight with primary antibodies. After addition of secondary antibodies, membranes were incubated with SuperSignal West Pico Plus or Femto substrate (ThermoFisher) and luminescence was captured with a C300 imager (Azure Biosystems). […]

C[C@@H]1COCCN1c1cc(=O)n2c(n1)N(Cc1cncc(Cl)c1)[C@H](C(F)(F)F)CC2 [SAR405]
p62 levels [1]: significantly increased | TNFα-induced activation of caspase-8 [1]: enhanced | killing by TNFα in multiple mouse and human cancer cell lines [2]: significantly increased | killing by TNFα in multiple mouse and human cancer cell lines ([2]; listed as SAR-405): sensitizes | tumor cell killing by human T cells with breast tumor antigen×CD3 bispecific antibody [3]: significantly increased

Cc1cc(Nc2cc(Cl)nc(Oc3ccc([N+](=O)[O-])cc3)n2)n[nH]1 [autophinib]
TNFα-mediated killing (relative cell viability) ([4]; MC38 cells, 10 ng/ml TNFα, 5 μM autophinib, 16 hours): increased | p62 levels [1]: significantly increased | TNFα-induced activation of caspase-8 [1]: enhanced | sensitization to TNFα- and TRAIL-mediated killing ([5]; HCT-116 (10 ng/ml TNFα or TRAIL), HeLa (50 ng/ml TRAIL)): sensitizes | induction of apoptosis by TRAIL ([5]; human cancer cells (HCT-116, HeLa), 10 or 50 ng/ml TRAIL): increased | killing by TNFα in multiple mouse and human cancer cell lines [2]: significantly increased; also recorded: sensitizes | TNFα-mediated degradation of Iκ-Bα ([6]; 10 ng/ml TNFα 30 minutes): did not affect | TNFα-mediated caspase-8 activation ([6]; 10 ng/ml TNFα 4 hours): increased | levels of p62 ([6]; 4 hours): significantly increased | activation of caspase-8 by TRAIL [7]: increased

CN1C(=O)C(Cc2c[nH]c3ccccc23)NC1=S (stereo not drawn) [necropsis inhibitor]
TNFα-mediated killing in Rb1cc1 KO cells ([4]; 24 hours): had no effect

COC(=O)C[C@H](NC(=O)[C@H](C)NC(=O)[C@@H](NC(=O)OCc1ccccc1)C(C)C)C(=O)CF [z-VAD-FMK] (Cbz-Val-Ala-Asp(OMe)-CH2F)
TNFα killing of MC38 cells in presence of caspase inhibitor ([4]; 25 μM z-VAD-FMK, 10 ng/ml TNFα, 24 hours): blocked | TNFα-mediated killing in Rb1cc1 KO cells ([4]; 24 hours): blocked

B1: TNFα: Recombinant mouse and human TNFα from PeproTech (protein)
chain: LRSSSQNSSDKPVAHVVANHQVEEQLEWLSQRANALLANGMDLKDNQLVVPADGLYLVYSQVLFKGQGCPDYVLLTHTVSRFAISYQEKVNLLSAVKSPCPKDTPEGAELKPWYEPIYLGGVFQLEKGDQLSAEVNLPKYLDFAESGQVYFGVIAL
MC38 cell death by soluble TNFα ([4]; 10 ng/ml TNFα, 24 hours): promoted MC38 cell death | killing by TNFα ([8]; CT26, B16F10, 4T1 cells): not killed | TNFα-induced caspase-8 activation and apoptosis ([8]; EMT6 and MC38 cells): exhibited TNFα-induced caspase-8 activation and apoptosis
